Measurements taken from patent US5948802A, “Benzoate derivatives of diaryl 1,3,4-oxadiazolone” (Bristol-Myers Squibb Company, priority 1999, dated 1999).
Structures can show the parent of a compound that is named as a salt.

Tests used:
[1] = Rapid screen of prodrug hydrolysis and drug release in plasma; type: in vitro ADME; conditions: 10 ug/mL in fresh rat plasma at 37° C.; analysis 5 minutes after incubation; stock 1 mg/mL in PEG-400
Procedure: A rapid screen to determine the ability of prodrugs to hydrolyze and release the drug (compound of Preparation 1) is conducted as follows. A 1 mg/mL stock solution of the prodrug is prepared in distilled water or acetonitrile or PEG-400. Plasma from freshly collected rat or human blood is used in this assay. To 1 mL of plasma at 37° C. was added 10 μL of stock solution of prodrug and mixed gently. Immediately after the mixing, 100 μL of plasma was removed and quenched with 300 μL of acetontrile (Zero time sample). Samples were also obtained at 30 minutes and quenched immediately. The quenched samples were centrifuged to obtain a clear supernatant for analysis. The stock solution, T=0 and T=30 samples were analyzed by a HPLC assay that separates the drug from the prodrug. Based on the relative peak areas of prodrug and drug in these samples, different prodrugs are characterized as fast, moderate and slow release agents. For example, in this model, the compound of Example 1 was dissolved in PEG-400 at a concentration of 1 mg/mL and incubated at 10 ug/mL in fresh rat plasma at 37° C.

[2] = tested on: cloned mammalian (mSlo or hSlo) BK-mediated outward current; assay: Increase of cloned BK-mediated outward current in Xenopus oocytes, two-electrode voltage clamp; type: cell-based; conditions: 1 μM; at least 5 oocytes; mSlo or hSlo expressed in Xenopus oocytes
Procedure: (§1) The ability of the compound of Preparation 1 to open BK channels and increase whole-cell outward (K^+) BK-mediated currents was assessed under voltage-clamp conditions by determining their ability to increase cloned mammalian (mSlo or hSlo) BK-mediated outward current heterologously expressed in Xenopus oocytes [Butler, A., et al., Science, 261, pp. 221-224 (1993); and Dworetzky, S. I., et al., Mol. Brain Res., 27, pp.189-193 (1994)]. The two BK constructs employed represent nearly structurally identical homologous proteins, and have proven to be pharmacologically identical in our tests. To isolate BK current from native (background, non-BK) current, the specific and potent BK channel-blocking toxin iberiotoxin (IBTX) [Galvez, A., et al., J. Biol. Chem, 265, pp. 11083-11090 (1990)] was employed at a supramaximal concentration (50 nM). The relative contribution of BK channels current to total outward current was determined by subtraction of the current remaining in the presence of IBTX (non-BK current) from the current profiles obtained in all other experimental conditions (control, drug, and wash). […]

[3] = tested on: non-BK native currents in the oocytes; assay: Effect on non-BK (IBTX-insensitive) native currents in oocytes; type: cell-based, Xenopus; conditions: at the tested concentration
Procedure: as §1

focal cerebral ischemia = assay: Focal stroke model: permanent MCA and CCA occlusion, cortical infarct volume; type: in vivo, Wistar rat; conditions: 10 μg/kg i.v. single bolus two hours after MCA occlusion; measured 24 hours after MCAO; vs vehicle-treated (water) control
Procedure: To determine the ability of the compounds of the present invention to reduce cell loss resulting from neuronal ischemia, a standard focal cerebral ischemia is induced by permanent occlusion of the left middle cerebral artery (MCA) and common carotid artery (CCA) with one hour occlusion of the right CCA in the Wistar rat. The surgeries are performed using the sub-temporal approach of A. Tamura, et al., J. Cereb. Blood Flow Metab., 1, pp. 53-60, (1981) and its modifications [K. Osborne, et al., J. Neurol Neurosurg. Psychiatry, 50, pp. 402-410 (1987) and S. Menzies,et al., Neurosurgery, 31, pp. 100-107, (1992).]
The compound of Preparation 1 was evaluated in the focal stroke model involving permanent occlusion of the left MCA (MCAO) and CCA (CCAO) and temporary occlusion of the right CCA in the Wistar rat. This procedure results in a reliably large neocortical infarct volume that is measured by means of vital dye exclusion in serial slices through the brain 24 hours after MCAO. In the present test, compounds were administered using an i.v. or i.p. route of administration two hours after occlusion.

## CCN(CC)Cc1ccc(C(=O)Oc2ccc(Cl)cc2Cn2nc(-c3ccc(C(F)(F)F)cc3)oc2=O)cc1 [Example 1, 4-Chloro-2-[[5-[4-(trifluoromethyl)phenyl]-2,3-dihydro-2-oxo-1,3,4-oxadiazol-3-yl]methyl]phenyl 4-[(diethylamino)-methylbenzoate hydrochloride]
[1]
  conversion of prodrug to the compound of Preparation 1: indicated conversion of the compound of Example 1 to the compound of Preparation 1

## O=c1oc(-c2ccc(C(F)(F)F)cc2)nn1Cc1cc(Cl)ccc1O [Preparation 1, 3-[(5-Chloro-2-hydroxyphenyl)methyl]-5-[4-(trifluoromethyl)phenyl]-1,3,4-oxadiazol-2(3H)-one]
[2]
  BK current, % of control of IBTX-sensitive current: 126%
[3]
  effect on non-BK native currents in the oocytes: did not effect non-BK native currents
Focal cerebral ischemia
  reduction of cortical infarct volume: about 18%
